Data published in patent publication US20140045809A1, “CORROLES FOR NEUROPROTECTION AND NEURORESCUE” (priority 2008, published 2014).
pIC50: −log10 of the molar value. Entries after “also recorded” stand apart in the source; their conditions may differ. Blank lines part the entries; values can stand above or below the compound they belong to.

Tests used:
[1] = SOD activity (catalytic decomposition of superoxide anion radical), cytochrome C assay; type: biochemical
Method: (§1) SOD activity (enzyme-like catalytic decomposition of superoxide anion radical) of the corroles 1C-Fe, 6C-Fe, 1C-Mn, 1C-Cu, 2C-Mn and 3C-Mn was examined via the cytochrome C assay. The catalytic rate constants for decomposition of peroxynitrite (PN) by the newly prepared iron corrole 6C-Fe and manganese corrole 3C-Mn were determined via stopped-flow kinetics as previously described for corroles 1C-Fe, 1C-Mn, and 2C-Mn (Mahammed and Gross, 2006; Gershman et al., 2007). These tests are performed in order to estimate how electronic and structural variables affect reactivity, which is a crucial factor for design of new complexes.

[2] = Catalytic decomposition of peroxynitrite (PN), stopped-flow kinetics (Table 1); type: biochemical
Method: as §1

[3] = Rescuing DMSO from damage attributed to the hydroxyl radical (Fenton reaction); type: biochemical; conditions: for Yield (%) or amount of product (Formaldehyde): substrate DMSO
From the text: Corrole complexes were examined with respect to their efficiency of rescuing DMSO from damage attributed to the hydroxyl radical, formed via the Fenton reaction that also involves superoxide anion radical and hydrogen […]. It also mimics reaction occurring in biological systems that are exposed to metal toxicity, the situation that occurs in diseases caused by brain iron accumulation.

RIN-m cells [4] = assay: Protection of RIN-m beta cells against H2O2 toxicity (MTT); type: cell-based, rat; conditions: H2O2 150 μM
Method: Two insulin-secreting beta cell lines, rat insulinoma (INS-1E) and RIN-m cells, were used to examine the protective effect of corrole 1C-Fe. The cells were cultured at 37° C., in a humid 5% CO2, 95% air environment in regular RPMI-1640 medium (Invitrogen) supplemented with 5% fetal calf serum (FCS).
After 2 days of culture, RIN-m cells (5×10^4 cells/well in 96-well plates) were treated with corrole 1C-Fe (1-50 μM) before addition of 35 μM of H2O2. Cell viability was evaluated by a colorimetric assay for mitochondrial function estimation using the MTT test as previously described (Gassen et al., 1998) and expressed as percentage of control.
RIN-m cells were grown as described in Example 5. After 3 days of culture, RIN-m cells (2.5×10^4 cells/well in 96-well plates) were treated with corroles 1C-Fe or 5C-Fe or porphyrin 1P-Fe (1 and 20 μM), added 30 min prior to treatment with 35 μM H2O2 and further incubated for 24 h. Cell injury was evaluated by MTT test. […] […].
Protective effect of iron(III) corrole complexes against H2O2-induced toxicity (150 μM) was compared to that of manganese(III) corroles and related porphyrin. […].

RIN-m cells [5] = assay: Protection of RIN-m cells against SIN-1 toxicity (MTT); type: cell-based, rat; conditions: 0.1-20 μM, 30 min before SIN-1 (800 μM), 24 h
Method: INS-1E cells or RIN-m cells were cultured in RPMI with low serum content (2% FCS), placed in microtiter plates (96 wells) at a density of 2.5×10^4 cells/well and allowed to attach for 24 h before treatment. Corroles 1C-Fe and 5C-Fe (10 μM) were added 30 min prior to insult with the nitric oxide donor SIN-1 (500 or 600 μM) for a subsequent 24 h period. Cell viability was evaluated by a colorimetric assay for mitochondrial function using 3-(4,5-dimethylthiazol-2-yl)-2,5-diphenyltetrazolium bromide (MTT test), and expressed as percentage of untreated control. Values higher than 100% reflect increased mitochondrial activity induced by the drug. The results represent the mean±SEM of three independent experiments performed under the same conditions.
Insulin-secreting RIN-m cells were incubated in RPMI with low serum content (2% FCS) and placed in microtiter plates (96 wells) at a density of 2.5×10^4 cells/well and allowed to attach for 24 h before treatment. Cells were treated with corroles 1C-Fe, 1C-Mn or 2C-Mn or porphyrins 1P-Fe or 2P-Mn, in various concentrations (0.1-20 μM), for 30 min prior to insult with SIN-1 (800 μM) for a subsequent 24 h period. Cell viability was evaluated by MTT test and expressed as percentage of untreated control.

[6] = Peroxynitrite decomposition rates by manganese corroles (Example 2); type: biochemical; conditions: 385 μM peroxynitrite, pH 7.4, 25° C., absorbance at 302 nm; Table 2
Method: The investigations were performed by examining the decay of 385 μM peroxynitrite at pH 7.4 and 25° C. in the presence and absence of various amounts of Mn corrole catalysts 2C-Mn, 2C′-Mn, 2C″-Mn, 3C-Mn and 4C-Mn. The differences between 2C-Mn, 2C′-Mn, and 2C″-Mn is in the identity of the 10-aryl group, which is C6F5, para-anisyl, and phenyl, respectively. The results (one example using 4C-Mn is shown in FIG. 1) were obtained by monitoring changes in absorbance at 302 nm, the λmax of peroxynitrite. The catalytic performances of five of the above compounds were tested; and the thus elucidated kcat values are presented in Table 2. Importantly, in sharp contrast with the corroles, none of the structurally similar manganese (III) porphyrin complexes affected the decomposition of peroxynitrite by any extent (not shown).

SH-SY5Y cells [7] = assay: Neuroprotection/neurorescue against SIN-1-induced cell death in SH-SY5Y cells; type: cell-based, human
Method: SH-SY5Y cells were cultured in DMEM-Eagle/F-12(HAM) (1:1) containing 10% FCS. Cells were resuspended in medium containing 2% FCS, seeded in microtiter plates (96 wells) and allowed to attach for 24 h before initiation of treatment. […]

nitrotyrosine (Ntyr) = assay: SIN-1-induced cellular protein nitration, nitrotyrosine immunofluorescence in SH-SY5Y cells; type: cell-based, human; conditions: 20 μM corrole, SIN-1 700 μM, 24 h
Method: To determine the effect of the corroles on SIN-1-induced cellular protein nitration, SH-SY5Y neuroblastoma cells were treated with SIN-1 (700 μM) in the absence or presence of 20 μM of the corroles 1C-Fe, 2C-Mn, and 3C-Mn. Protein nitration was detected by immunofluorescence analysis using a monoclonal antibody against nitrotyrosine (Ntyr), a biological marker of peroxynitrite.

SH-SY5Y cells [8] = type: cell-based; conditions: 20 μM
Method: SH-SY5Y cells were cultured in DMEM-Eagle/F-12(HAM) (1:1) containing 10% FCS. Cells were resuspended in medium containing 2% FCS, seeded in microtiter plates (96 wells) and allowed to attach for 24 h. To examine the neuroprotective effect, cells were pretreated for 30 min with corroles 1C-Fe and 5C-Fe (1-20 μM), and were then exposed to 6-OHDA (60 μM) for further 24 h. For neurorescue assessment, SH-SY5Y cells were first treated with 6-OHDA (60 μM) for 0.5 h, 1.5 h, 3 h and 6 h followed by the addition of compounds 1C-Fe and 5C-Fe (10 μM) for further 24 h.
(§2) SH-SY5Y cells were pretreated with or without corroles 1C-Fe, 2C-Mn and 3C-Mn and porphyrins 1P-Fe and 2P-Mn (20 μM), 30 min before exposure to 6-OHDA (40 μM) for a subsequent 24 h period. Cell viability was evaluated by MTT test and cell death was assessed using the apoptotic cell death detection ELISA kit. For neurorescue, SH-SY5Y cells were first exposed to 40 μM 6-OHDA for 0.5. 1, 1.5 and 3 h, followed by the addition of the compounds 1C-Fe, 2C-Mn and 3C-Mn (20 μM) and incubated for further 24 h. Growth-associated protein (GAP-43) was detected by fluorescence microscopy using a specific primary antibody. Apoptotic nuclei were determined by terminal deoxynucleotidyl transferase-mediated UTP-digoxigenin nick end labeling analysis. 4′,6-Diamidino-2-phenylnidole (DAPI) staining was applied for nuclear labeling. […]

cleaved caspase-3 = assay: Cleaved caspase-3 level in 6-OHDA-treated SH-SY5Y cells, immunofluorescence; type: cell-based, human; conditions: 20 μM, 30 min before 6-OHDA (40 μM), 24 h
Method: as §2
Since 6-OHDA is also known to induce apoptosis in various cell types, including SH-SY5Y (von Coelln et al. 2001; Nie et al. 2002; Shimizu et al. 2002; Jordan et al. 2004), we further tested effect of corroles on the levels of the apoptotic marker, cleaved caspase-3, a major executer of the mitochondrial intrinsic pathway of apoptosis.

SH-SY5Y cells [9] = type: cell-based; conditions: up to 50 μM; data not shown
[10] = CuSO4/ascorbate, no additive 44 μM
[11] = CuSO4/glutathione, no additive 11 μM
[12] = 30 min before 6-OHDA (40 μM), 24 h

pIC50 [1]: 4.92
Structure (SMILES): O=S(=O)(O)c1cc2[n]3c1C(c1c(F)c(F)c(F)c(F)c1F)=C1C=CC4=[N+]1[Cu-]31[n]3c(cc(S(=O)(=O)O)c3-2)C(c2c(F)c(F)c(F)c(F)c2F)=c2ccc([n]21)=C4c1c(F)c(F)c(F)c(F)c1F (centres unmarked) [1C-Cu, 2,17-bis(sulfonato)-5,10,15-tris(pentafluorophenyl)-corrolato copper(III)]

pIC50 [1]: 5.23
Structure (SMILES): O=S(=O)(O)c1cc2[n]3c1C(c1c(F)c(F)c(F)c(F)c1F)=C1C=CC4=[N+]1[Mn-]31[n]3c(cc(S(=O)(=O)O)c3-2)C(c2c(F)c(F)c(F)c(F)c2F)=c2ccc([n]21)=C4c1c(F)c(F)c(F)c(F)c1F (centres unmarked) [1C-Mn, 2,17-bis(sulfonato)-5,10,15-tris(pentafluorophenyl)-corrolato manganese(III)]
kcat, catalytic rate constant for decomposition of PN [2]: 40000 M⁻¹ s⁻¹ | Yield (%) or amount of product (Formaldehyde) [3, 10]: 20 µM | Yield (%) or amount of product (Formaldehyde) [3, 11]: 7 µM | cytoprotective effect against H2O2-induced toxicity (RIN-m cells [4]): totally inefficient; also recorded: inefficiency | protective effect against SIN-1 induced toxicity (MTT), comparative (RIN-m cells [5]): ineffective

Structure (SMILES): COc1ccc(C2=c3ccc4[n]3[Mn-]35[n]6c(ccc6-c6ccc([n]63)C=4c3cc[n+](C)cc3)C(c3cc[n+](C)cc3)=C3C=CC2=[N+]35)cc1 (centres unmarked) [2C′-Mn]
kcat, peroxynitrite decomposition rate [6]: 77000 M⁻¹ s⁻¹

Structure (SMILES): C[n+]1ccc(C2=C3C=CC4=[N+]3[Mn-]35[n]6c2ccc6-c2ccc([n]23)C(c2cc[n+](C)cc2)=c2ccc([n]25)=C4c2ccccc2)cc1 (centres unmarked) [2C″-Mn]
kcat, peroxynitrite decomposition rate [6]: 81000 M⁻¹ s⁻¹

Structure (SMILES): C[n+]1ccc(C2=C3C=CC4=[N+]3[Mn-]35[n]6c2ccc6C(c2c(F)c(F)c(F)c(F)c2F)=C2C=CC(=[N+]23)C(c2cc[n+](C)cc2)=c2ccc([n]25)=C4c2c(F)c(F)c(F)c(F)c2F)cc1.[I-].[I-] (centres unmarked) [2P-Mn, 5,15-bis(N-methyl-4-pyridilium)-10,20-bis-(pentafluoro-phenyl)porphyrinato manganese(III) diiodide salt, reference compound]
cytoprotective effect against H2O2-induced toxicity (RIN-m cells [4]): totally inefficient; also recorded: inefficiency

Structure (SMILES): C[n+]1ccccc1C1=C2C=CC3=[N+]2[Mn-]24[n]5c1ccc5-c1ccc([n]12)C(c1cccc[n+]1C)=c1ccc([n]14)=C3c1cccc[n+]1C (centres unmarked) [3C-Mn, 5,10,15-tris(N-methyl-2-pyridilium)corrolato manganese(III)]
pIC50 [1]: 5.49 | kcat, catalytic rate constant for decomposition of PN [2]: 25000 M⁻¹ s⁻¹ | kcat, peroxynitrite decomposition rate [6]: 25000 M⁻¹ s⁻¹ | Yield (%) or amount of product (Formaldehyde) [3, 10]: 0 µM | Yield (%) or amount of product (Formaldehyde) [3, 11]: 0 µM | preventing oxidative damage / protection against metal-induced oxidation of substrates ([3]; summary of Table 3): protect better than corrole 1C-Mn | cytoprotection against different SIN-1 concentrations (SH-SY5Y cells [7]; 25 μM corrole, FIG. 12C): protect cells against different SIN-1 concentrations | protection against SIN-1 (MTT reduction analysis and ELISA assay) (SH-SY5Y cells [7]; 30 min before SIN-1, 24 h (Example 12)): protect, in a dose-dependent manner; also recorded: more effective not only than 2C-Mn | nitrotyrosine (Ntyr) staining, SIN-1-induced (nitrotyrosine (Ntyr)): totally abolished | protection against 6-OHDA compared with porphyrins 1P-Fe and 2P-Mn (SH-SY5Y cells [8]; 6-OHDA 40 μM, immunofluorescence): remarkable superiority over the porphyrins | 6-OHDA-induced cytotoxicity (MTT, cell death ELISA) (SH-SY5Y cells [8]; [12]): significantly attenuated 6-OHDA-induced cytotoxicity | cell mortality, morphology and apoptotic nuclei (GAP-43 immunofluorescence, TUNEL, DAPI) (SH-SY5Y cells [8]; [12]): significantly attenuated 6-OHDA-induced cell mortality, improved cell morphology and reduced the number of apoptotic nuclei | 6-OHDA-induced increase of cleaved caspase-3 (cleaved caspase-3): totally | preventing H2O2-mediated cytotoxicity (SH-SY5Y cells [9]): not effective

Structure (SMILES): C[n+]1ccccc1C1=C2C=CC3=[N+]2[Mn-]24[n]5c1ccc5-c1ccc([n]12)C(c1cccc[n+]1C)=c1ccc([n]14)=C3c1c(F)c(F)c(F)c(F)c1F (centres unmarked) [4C-Mn, 5,15-bis(N-methyl-2-pyridilium) 10-pentafluorophenyl corrolato manganese(III)]
kcat, peroxynitrite decomposition rate [6]: 160000 M⁻¹ s⁻¹

Structure (SMILES): COc1c(F)c(F)c(C2=C3C=CC4=[N+]3[Fe-]35[n]6c(cc(S(=O)(=O)O)c62)-c2c(S(=O)(=O)O)cc([n]23)C(c2c(F)c(F)c(OC)c(F)c2F)=c2ccc([n]25)=C4c2c(F)c(F)c(OC)c(F)c2F)c(F)c1F (centres unmarked) [6C-Fe, 2,17-bis-sulfonato-5,10,15-tris(p-methoxy-tetra-fluorophenyl)iron(III) corrole]
pIC50 [1]: 5.93
